Source: PMC4604124, “In Vitro Characterization of the Pharmacological Properties of the Anti-Cancer Chelator, Bp4eT, and Its Phase I Metabolites” (PLoS ONE, 2015)
Values joined by “and” are separate entries in the source; they are usually repeats but may differ in a detail not shown here. Equal entries are not always repeated.

Columns and labels:
[1] = system: cancer cells (HL-60, MCF-7, HCT116, A549) and non-cancerous cells (H9c2, 3T3); assay: MTT cytotoxicity assay, summary over the cell line panel; format: cell-based; settings: HL-60, MCF-7, HCT116, A549; 72 h; read-out: IC50, range over cancer cells
Experimental: (§1) For cytotoxicity experiments, cancer cells were seeded at a density of 5,000 (MCF-7), 10,000 (HL-60) or 2,000 cells/well (HCT116 and A549) in 96-well plates (TPP) for 24 h/37°C prior to the addition of examined agents. The non-cancerous cells, 3T3 and H9c2 cells, were cultured for 24 h/37°C in 96-well plates at a density of 10,000 cells/well, the medium was then changed to serum- and pyruvate-free DMEM (Sigma-Aldrich) and incubated with the cells for another 24 h/37°C. The cytotoxic effects of Bp4eT and its metabolites were studied at different concentrations after a 72 h/37°C incubation. In order to aid the dissolution of the lipophilic ligands, 0.1% dimethyl sulfoxide (v/v) (DMSO; Sigma-Aldrich) was present in the culture medium of all groups. At this concentration, DMSO had no effect on cellular proliferation or viability.
(§2) The viability of cells were determined using an MTT assay (Sigma-Aldrich) according to previously established methods. The optical density of soluble MTT was measured at λ = 570 nm, subtracting the λ = 690 nm background using a Tecan Infinite 200M plate reader (Tecan Group, Männedorf, Switzerland). The viability or proliferation of experimental groups was expressed as a percentage of the untreated controls (100%).
(§3) SigmaStat for Windows 3.5 (Systat Software, San Jose, CA, USA) statistical software package was utilized to analyze results. The data are expressed as the mean ± SD of a given number of experiments. Statistical significance was determined using a one-way ANOVA with a Bonferroni post-hoc test or Student’s t-test. The results were considered to be statistically significant when p < 0.05. The IC50 values were calculated using CalcuSyn 2.0 software (Biosoft, Cambridge, UK). Cell cycle analysis was evaluated using MultiCycle AV Software (Phoenix Flow Systems, San Diego, CA, USA).

[2] = system: MCF-7 cells prelabeled with 59Fe2-transferrin; assay: Mobilization (efflux) of cellular 59Fe; format: cell-based, human; parameters: Efflux 59Fe / Efflux 59Fe, Ave: unit not given here
Excerpt: Human transferrin (Sigma) was labeled with ^56Fe or ^59Fe (PerkinElmer, Massachusetts, USA) to produce ^56Fe2-transferrin or ^59Fe2-transferrin (^59Fe2-Tf), respectively, with a final specific activity of 500 pCi/pmol Fe, as previously described. Unbound ^59Fe was removed by exhaustive vacuum dialysis against a large excess of 0.15 M NaCl buffered to pH 7.4 with 1.4% NaHCO3 by standard methods.
To examine the ability of studied compounds to mobilize cellular ^59Fe from MCF-7 cells, iron efflux experiments were performed using established techniques. In brief, after pre-labeling confluent MCF-7 cells on 6-well plates with 0.75 μM ^59Fe2-Tf for 3 h/37°C, the cells were washed four times with ice-cold PBS and then subsequently incubated with 25 μM of Bp4eT or its metabolites for 3 h/37°C. The overlying medium containing released ^59Fe was then decanted from the cells. Radioactivity was measured in both the cells and the supernatant using a γ-scintillation counter (Wallac Wizard 3, Turku, Finland).

[3] = parameters: method as in PMID 24254882; settings: cited from earlier work
[4] = system: HCT116 human colorectal carcinoma cells; assay: MTT cytotoxicity assay, HCT116 cells; format: cell-based; settings: for IC50: MTT
Experimental: as §1, §2, §3

CCN=CNN=C(c1ccccc1)c1ccccn1 [Bp4eA, N ^3-ethyl-N ^1-[phenyl(pyridin-2-yl)methylene]formamidrazone]
IC50 [1]: 52 to 207 µM
Efflux 59Fe, Ave ([2]; average of all replicates): 3.53
Efflux 59Fe ([2]; single replicate (three per date)): 4.0325 and 2.6377 and 3.5208 and 3.7889 and 3.2967 and 3.9821 and 3.9608 and 3.1218 and 3.4276
Highest concentration in plasma ([3]; rat plasma, after 300 min post i.v. administration of Bp4eT): < 1 µM
Exposure relative to that of the parent compound ([3]; rats, intravenous administration of Bp4eT): 20%
Therapeutic index, IC50 non-cancerous cells / IC50 neoplastic cells ([4]; 3T3/HCT116): 9.2
Therapeutic index, IC50 non-cancerous cells / IC50 neoplastic cells ([4]; H9c2/HCT116): 3.7
MTT, relative to control (0 = 100) ([4]; HCT116, 2 000 b/j, 1 μM, průměr (mean), sheet Bp4eA): 97.58
MTT, relative to control (0 = 100) ([4]; HCT116, 2 000 b/j, 1 μM, single experiment (date), sheet Bp4eA): 99.1509 and 100.455 and 96.4816 and 94.6996 and 96.3825 and 98.3223
MTT, relative to control (0 = 100) ([4]; HCT116, 2 000 b/j, 3 μM, průměr (mean), sheet Bp4eA): 97.04
MTT, relative to control (0 = 100) ([4]; HCT116, 2 000 b/j, 3 μM, single experiment (date), sheet Bp4eA): 97.9686 and 98.7085 and 92.1521 and 93.3267 and 100.675 and 99.4316
MTT, relative to control (0 = 100) ([4]; HCT116, 2 000 b/j, 10 μM, průměr (mean), sheet Bp4eA): 94.04
MTT, relative to control (0 = 100) ([4]; HCT116, 2 000 b/j, 10 μM, single experiment (date), sheet Bp4eA): 94.463 and 96.9011 and 92.7169 and 93.3863 and 93.3144 and 93.4876
MTT, relative to control (0 = 100) ([4]; HCT116, 2 000 b/j, 30 μM, průměr (mean), sheet Bp4eA): 89.95
MTT, relative to control (0 = 100) ([4]; HCT116, 2 000 b/j, 30 μM, single experiment (date), sheet Bp4eA): 90.1675 and 87.4242 and 84.0067 and 87.0754 and 95.7934 and 95.2315
MTT, relative to control (0 = 100) ([4]; HCT116, 2 000 b/j, 100 μM, průměr (mean), sheet Bp4eA): 58.40
MTT, relative to control (0 = 100) ([4]; HCT116, 2 000 b/j, 100 μM, single experiment (date), sheet Bp4eA): 42.8559 and 58.6495 and 64.6288 and 67.4584
MTT, relative to control (0 = 100) ([4]; HCT116, 2 000 b/j, 300 μM, průměr (mean), sheet Bp4eA): 9.79
MTT, relative to control (0 = 100) ([4]; HCT116, 2 000 b/j, 1000 μM, průměr (mean), sheet Bp4eA): 2.29
IC50 ([4]; HCT116, 2 000 b/j, single experiment (date), sheet Bp4eA): 115 µM and 125 µM (2×)
IC50 ([4]; Homo sapiens, HCT-116, 72 h, HCT116, 72 h/37°C, mean ± SD, n ≥ 4): 112 ± 20.9 µM
IC50 ([4]; Homo sapiens, HCT-116, HCT116, 2 000 b/j, průměr (mean), sheet Bp4eA): 112 µM
IC50 ([4]; Homo sapiens, HCT-116, HCT116, 2 000 b/j, single experiment (date), sheet Bp4eA): 80.9 µM
